Source: patent publication US5698580A, “Antiviral agent containing benzodithiin derivative as active ingredient” (Rational Drug Design Laboratories, priority 1994, dated 1997)
Values after ≈ are worked out from the molar mass of the structure shown.

Columns and labels:
in vitro [1] = type: cell-based; conditions: human, hela cells
Method: Maintenance media (Eagle's MEM media supplemented with 2% bovine serum albumin) containing compounds 1-13 or Ribavirin (control drug) at various concentrations, a HeLa cell suspension prepared in advance by digestion with trypsin, and maintenance media containing RS virus Long strain were plated in 96 well round-bottom microplates, and centrifuged at a low speed (700×g) for 5 minutes at room temperature. After the completion of the centrifugation, the media were incubated in a CO2 gas incubator at 35° C. for 5 days. The MTT [3-(4,5-dimethylthiazol-2-yl)-2,5-diphenyltetrazolium bromide] solution was added to the media at 4 hours before the completion of the incubation, and the proportion of viable cells was colorimetrically determined on a microplate reader. The concentration of the compound at which cell destruction by RS virus infection was inhibited by 50% is shown as antiviral activity (EC50). In addition, 50% cytotoxicity value (CC50) of the compound was calculated from the tests run concurrently without inoculation of RS virus. The ratio of CC50 to EC50 was determined as S.I. (selectivity index, CC50 /EC50).

RS virus [2] = test: Suppression of RS virus assayed by the MTT method (Experimental Example 1); type: cell-based, RS virus Long strain; conditions: for EC50: 120 h, concentration inhibiting HeLa cell destruction by RS virus infection by 50%, 35° C., 5 days, MTT; for S.I. (selectivity index, CC50/EC50): ratio of CC50 to EC50, MTT method
Method: After the completion of the centrifugation, the media were incubated in a CO2 gas incubator at 35° C. for 5 days. The MTT [3-(4,5-dimethylthiazol-2-yl)-2,5-diphenyltetrazolium bromide] solution was added to the media at 4 hours before the completion of the incubation, and the proportion of viable cells was colorimetrically determined on a microplate reader. The concentration of the compound at which cell destruction by RS virus infection was inhibited by 50% is shown as antiviral activity (EC50). In addition, 50% cytotoxicity value (CC50) of the compound was calculated from the tests run concurrently without inoculation of RS virus. The ratio of CC50 to EC50 was determined as S.I. (selectivity index, CC50 /EC50).

in vitro [3] = type: cell-based; conditions: human, hela cells; remark: listed apart in the source
Method: (§1) The confluently grown HeLa cells in 24 well flat-bottom multitrays were inoculated with RS virus Long strain prepared in a maintenance medium (Eagle's MEM medium supplemented with 2% bovine serum albumin), and the cells were incubated in a CO2 gas incubator at 35° C. for one hour. Culture solution was discarded and the cells were washed with a maintenance medium. Then, maintenance media (supplemented with 0.6% methylcellulose) containing Compound 1 or Ribavirin (control drug) at various concentrations were added, and the media were incubated in a CO2 gas incubator at 35° C. for 4 days. After the completion of the incubation, the cells were fixed with a 5% aqueous formalin solution for 6 hours and washed with tap water. Then, the cells were stained with a 0.025% aqueous crystal violet solution. The infected cell plaques which were not stained with crystal violet were microscopically counted. The plaques formed using the compound at various concentrations and those of control group without the compound were counted, and the concentration of the compound at which the number of plaques was decreased by 50% is shown as an antiviral activity (EC50). In addition, 50% cytotoxicity (CC50) of the compound was calculated by the MTT method. The ratio of CC50 to EC50 was determined as S.I. (selectivity index, CC50 /EC50).

RS virus [4] = test: Suppression of RS virus assayed by plaque reduction method (Experimental Example 2); type: cell-based, RS virus Long strain; conditions: for EC50: 96 h, concentration decreasing number of plaques by 50%, HeLa cells, 35° C., 4 days; for S.I. (selectivity index, CC50/EC50): ratio of CC50 to EC50, plaque reduction method
Method: as §1

[5] = background art; cited from earlier work
RS virus [6] = conditions: background art; cited from earlier work

Row | SMILES | EC50 (RS virus [2]) [µg/mL] | CC50 at 120 h (in vitro [1]) [µg/mL] | S.I. (selectivity index, CC50/EC50) (RS virus [2]) | CC50 (in vitro [3]) [µg/mL] | EC50 (RS virus [4]) [µg/mL] | S.I. (selectivity index, CC50/EC50) (RS virus [4]) | teratogenicity, carcinogenicity and mutagenicity [5] | toxicity [5] | effect against RS virus (RS virus [6])
1 | c1ccc2c(c1)CSSC2 [Compound 1, 1,4-dihydro-2,3-benzodithiin] | 0.3 (≈ 1.78 µM) | 43 (≈ 256 µM) | 143.3 | 44.7 (≈ 266 µM) | 1.7 (≈ 10.1 µM) | 26.29 |  |  | 
2 | O=[N+]([O-])c1ccc2c(c1)CSSC2 [Compound 2, 1,4-dihydro-6-nitro-2,3-benzodithiin] | 1.9 (≈ 8.91 µM) | 8.9 (≈ 41.7 µM) | 4.7 |  |  |  |  |  | 
3 | COC(=O)c1ccc2c(c1)CSSC2 [Compound 4, methyl 1,4-dihydro-2,3-benzodithiin-6-carboxylate] | 1.8 (≈ 7.95 µM) | 9.7 (≈ 42.9 µM) | 5.4 |  |  |  |  |  | 
4 | O=C(O)c1ccc2c(c1)CSSC2 [Compound 5, 1,4-dihydro-2,3-benzodithiin-6-carboxylic acid] | 11.8 (≈ 55.6 µM) | 47.2 (≈ 222 µM) | 4.0 |  |  |  |  |  | 
5 | c1ccc(COc2ccc3c(c2)CSSC3)cc1 [Compound 7, 6-benzyloxy-1,4-dihydro-2,3-benzodithiin] | > 9.6 | 9.6 (≈ 35 µM) |  |  |  |  |  |  | 
6 | Fc1cccc2c1CSSC2 [Compound 10, 1,4-dihydro-5-fluoro-2,3-benzodithiin] | 1.1 (≈ 5.91 µM) | > 100 | > 90.9 |  |  |  |  |  | 
7 | CN(C)c1ccc2c(c1)CSSC2 [Compound 12, 1,4-dihydro-6-N,N-dimethylamino-2,3-benzodithiin] | 2.3 (≈ 10.9 µM) | 33.3 (≈ 158 µM) | 14.5 |  |  |  |  |  | 
8 | CC(C)(C)c1ccc2c(c1)CSSC2 [Compound 13, 6-tert-butyl-1,4-dihydro-2,3-benzodithiin] | 6.5 (≈ 29 µM) | 15.2 (≈ 67.7 µM) | 2.3 |  |  |  |  |  | 
9 | NC(=O)c1ncn([C@@H]2O[C@H](CO)[C@@H](O)[C@H]2O)n1 [Ribavirin, reference compound] | 7.6 (≈ 31.1 µM) | > 100 | 13.2 | > 100 | 3.7 (≈ 15.2 µM) | 27.03 | teratogenic, carcinogenic and mutagenic | high toxicity | effective against RS virus

Further lines, with some results ahead:

Row | EC50 (RS virus [2]) [µg/mL] | SMILES | CC50 at 120 h (in vitro [1]) [µg/mL] | S.I. (selectivity index, CC50/EC50) (RS virus [2]) | CC50 (in vitro [3]) [µg/mL] | EC50 (RS virus [4]) [µg/mL] | S.I. (selectivity index, CC50/EC50) (RS virus [4]) | teratogenicity, carcinogenicity and mutagenicity [5] | toxicity [5] | effect against RS virus (RS virus [6])
10 | 3 (≈ 16.4 µM) | Nc1ccc2c(c1)CSSC2 [Compound 3, 6-amino-1,4-dihydro-2,3-benzodithiin] | 5.1 (≈ 27.8 µM) | 1.7 |  |  |  |  |  | 
11 | 0.2 (≈ 1.1 µM) | Cc1ccc2c(c1)CSSC2 [Compound 6, 1,4-dihydro-6-methyl-2,3-benzodithiin] | 44.7 (≈ 245 µM) | 224 |  |  |  |  |  | 
12 | 1.6 (≈ 8.07 µM) | COc1ccc2c(c1)CSSC2 [Compound 8, 1,4-dihydro-6-methoxy-2,3-benzodithiin] | 12.8 (≈ 64.5 µM) | 8.0 |  |  |  |  |  | 
13 | 0.8 (≈ 4.29 µM) | Fc1ccc2c(c1)CSSC2 [Compound 9, 1,4-dihydro-6-fluoro-2,3-benzodithiin] | 57.7 (≈ 310 µM) | 72.1 |  |  |  |  |  | 
14 | 1.7 (≈ 8.39 µM) | Clc1ccc2c(c1)CSSC2 [Compound 11, 6-chloro-1,4-dihydro-2,3-benzodithiin] | 16.8 (≈ 82.9 µM) | 9.9 |  |  |  |  |  | 
